# Test results reported in US10858386B2, “Drug compound and purification methods thereof” (Otsuka Pharmaceutical Co., Ltd., priority 2017, dated 2020).
# Values joined by “and” are separate entries in the source; they are usually repeats but may differ in a detail not shown here. Identical values can stand only once.
# What was measured:
# Format in all cases: physicochemical
# [1] = Turbidity of pooled reconstituted samples (Hach 2100AN turbidimeter, NTU)
# Description: Turbidity monitors the transmission of light through a liquid sample to determine whether the sample is clear or the degree of opalescence in the sample. The analysis can be performed using a Hach Model 2100AN Laboratory Turbidimeter. The Hach Model 2100AN is a ratio turbidimeter that uses the ratio of transmitted to scattered light to reduce error in the measurement caused by colored solutions.
# Prior to each use, the Turbidimeter is calibrated with a Hach StabCal® Calibration Kit and then checked using Hach Gelex® Secondary Turbidity Standards. Sample cells are cleaned and oiled to reduce interference by dirt or imperfections in the glass. Sample cell indexing matches cells with similar interference for sample comparison.
# Reconstituted samples can be pooled to achieve at least 2.5 mL of sample, which is placed in the indexed sample cells for analysis. The turbidimeter measures the opalescence and returns a value in nephelometric turbidity units (NTU) ratio. This value was recorded by the instrument with a time and date stamp to track each sample.
# [2] = Thermogravimetric analysis (TGA) weight loss of the lyophilized product
# Description: TGA can be used as a corroborative method for residual moisture determination where the change in weight is attributed to the evolution of volatile substances, such as water. In addition, TGA can be used to deter mine physico-chemical changes as the specimen begins to decompose at elevated temperatures.
# TGA monitors the change in weight of a material as a function of temperature or time with heating. The analysis can be performed using a TA Instruments QSO per USP 891, Thermal Analysis. Test parameters and data analysis can conducted using TA Instruments Universal Analysis® software version 4.5A on a PC interface.
# Solid material, with a weight of about 13 mg to about 19 mg, can be placed in an open ceramic sample pan. The sample is then heated from 25° C. to 400° C. using a warming rate of about 10° C. per minute to measure the weight loss across the temperature range. Nitrogen, NF is used to purge the sample continuously at a flow rate of 60 mL/minute. The instrument is calibrated at temperatures that span the range of high temperature analysis.
# The lyophilized material is warmed and the sample weight can be monitored for any change. During warming, weight loss is correlated to the evolution of volatile components in the sample. Calculations identify the sample weight correlated to a temperature.
# [3] = Reconstitution time of the lyophilized product in the diluent (65% propylene glycol, 25% glycerin, 10% ethanol); conditions: 1 mL diluent
# Description: (§1) The requirements of a constituted solution are that there is no visible insoluble material and the solution is no less clear than the diluent after a predetermined amount of time. The volume for reconstitution can return the product to the same volume and concentration as the bulk solution used for filling or may be the volume intended for patient delivery in a clinical setting.
# For reconstitution, a specified volume of a diluent can be drawn up into a syringe. The diluent can then be extruded into the center of the dried cake of the product and the timer started. The product is then inspected at approximately 5 second intervals to determine the time material dissolved.
# Reconstitution was performed by extruding 1 mL of diluent into each vial using a vial adapter or syringe and allowing the vials to sit undisturbed until clear.
# (§2) Following lyophilization, the lyophilized samples were analysed for purity (% purity by HPLC), DMSO residual content, and residual moisture. The samples were reconstituted by dissolving them in the non-aqueous solvent system described in TABLE 11 below and the reconstitution time and appearance of the reconstituted formulations were analysed.
# [4] = Appearance of the reconstituted solution
# Protocol: as §1, §2
# [5] = Example 8 Study E, 3 pooled samples per lot
# [6] = Example 8 Study E: low shelf temperature, low chamber pressure, 15 microns in secondary drying
# [7] = Example 8 Study F: target parameters of TABLE 18
"Turbidity (NTU) [1, 5]","Weight Loss (% w/w), Total (TGA) ([2]; Example 8 Study F)","Weight Loss (% w/w), Total (TGA) ([2]; Example 8 Study G, one vial)","Average Recon Time (min) [3, 6]","Average Recon Time (min) [3, 7]","Appearance of reconstituted solution ([4]; Example 7, lyophilization procedure of TABLE 16)",Appearance of reconstituted solution ([4]; Example 8 Study A),Appearance of reconstituted solution ([4]; Example 8 Study B),Appearance of reconstituted solution ([4]; Example 8 Study C),Appearance of reconstituted solution ([4]; Example 8 Study D),Appearance of reconstituted solution ([4]; Example 8 Study E),Appearance of reconstituted solution ([4]; Example 8 Study F),Appearance of reconstituted solution ([4]; Example 8 Study G),Appearance of reconstituted solution ([4]; Example 8 Study H),Appearance of reconstituted solution ([4]; Example 8 repeat of Study H),"Turbidity (NTU) ([1]; Example 8 Study G, 3 pooled samples)","TGA total weight loss ([2]; Example 2 full load, TABLE 6 cycle) [%]","Weight Loss (% w/w), Total (TGA) ([2]; Example 8 Study B, vial 1 and 2)","TGA mass loss ([2]; Example 8 repeat of Study H, one vial)","Average Recon Time [3, 7] [min]",Structure (SMILES)
0.799 NTU and 0.833 NTU and 0.756 NTU,Total: 18.93 % w/w,Total: 16.7 % w/w,Lot 1: 17 min,Lot 1: 17.3 min,,,,,,,,,,,,,,,,Nc1ncn(C2CC(OP(=O)([O-])OCC3OC(n4cnc5c(=O)[nH]c(N)nc54)CC3O)C(CO)O2)c(=O)n1.[Na+] (stereo not drawn) [Lot 1]
0.795 NTU and 0.808 NTU and 0.867 NTU,Total: 19.82 % w/w,,Lot 2: 17 min,Lot 2: 18 min,,,,,,,,,,,,,,,,Nc1ncn(C2CC(OP(=O)([O-])OCC3OC(n4cnc5c(=O)[nH]c(N)nc54)CC3O)C(CO)O2)c(=O)n1.[Na+] (stereo not drawn) [Lot 2]
below 3 NTU,approximately 19 % w/w,approximately 17 % w/w,,,clear reconstituted solution,clear and colorless solutions,clear and colorless solutions,clear and colorless solutions,clear and colorless solutions,clear and colorless solutions,clear and colorless solutions,clear and colorless solutions,clear and colorless solutions,clear and colorless solutions,16.9 NTU and 16 NTU and 19 NTU,17,17.35 % w/w and 18.07 % w/w,about 17 % w/w,17 to 18,Nc1ncn([C@H]2CC(OP(=O)(O)OC[C@H]3O[C@@H](n4cnc5c(=O)[nH]c(N)nc54)CC3O)[C@@H](CO)O2)c(=O)n1 (stereo partly drawn) [compound of Formula (1)]
